What all share (assay type): in vivo
Experiment [1] deals with ducksalad (Heteranthera limosa). Kind of experiment: Test B flooded paddy test. As to conditions: Heteranthera limosa, Flood, 250 g ai/ha; scale of 0 to 100 where 0 is no effect and 100 is complete control; read-out: Ducksalad plant response rating. The gist of the method: (§1)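 Greenhouse paddy pots with 2-leaf stage plants received compound by direct addition to floodwater 3 cm deep, kept at that level. Scored visually at 13–15 d versus controls (0 no effect; 100 complete control).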

The test system of the next experiment is rice (Oryra sativa). Kind of experiment: Test B flooded paddy test. As to conditions: Oryza sativa, Flood, 250 g ai/ha; scale of 0 to 100 where 0 is no effect and 100 is complete control; read-out: Rice plant response rating. Put shortly: as §1
The test system of experiment [2] is barnyardgrass (Echinochloa crus-galli). Nature of the experiment: Test B flooded paddy test. The conditions noted are these: Echinochloa crus-galli, Flood, 250 g ai/ha; scale of 0 to 100 where 0 is no effect and 100 is complete control; read-out: Barnyardgrass plant response rating. Put shortly:
as §1

For experiment [3], the system named is sedge, umbrella (small-flower umbrella sedge, Cyperus difformis). Nature of the experiment: Test B flooded paddy test. The conditions noted are these: Cyperus difformis, Flood, 250 g ai/ha; scale of 0 to 100 where 0 is no effect and 100 is complete control; read-out: Sedge, Umbrella plant response rating. The gist of the method: as §1
For experiment [4], the system named is giant foxtail (Setaria faberii). Kind of experiment: Test A preemergence. As to conditions: Setaria faberi, pre-emergence, 240 h; for pest or weed control at 125 g/ha: 125 g ai/ha, 0 to 100 scale where 0 is no effect and 100 is complete control; for pest or weed control at 500 g/ha: 500 g ai/ha. Put shortly:
(§2)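 Preemergence directed soil spray on seeded pots, or postemergence application to plants 2–10 cm, one- to two-leaf. Solvent mixture non-phytotoxic, with surfactant. Scored ~10 d later, visually, 0–100 vs untreated.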

Experiment [5] concerns wheat (Triticum aestivum). Nature of the experiment: Test A postemergence. The conditions noted are these: Triticum aestivum, post-emergence, 240 h, 125 g ai/ha. Put shortly: as §2
The test system of experiment [6] is Galium (catchweed bedstraw, Galium aparine). Nature of the experiment: Test A postemergence. The conditions noted are these: Galium, post-emergence, 240 h, 125 g ai/ha. The gist of the method: as §2
Experiment [7] has as its system ryegrass, Italian (Italian ryegrass, Lolium multiflorum). Kind of experiment: Test A postemergence. As to conditions: Lolium multiflorum, post-emergence, 240 h, 125 g ai/ha. Put shortly: as §2
For another experiment, the system named is corn (Zea mays). Nature of the experiment: Test A postemergence. As to conditions: Zea mays, post-emergence, 240 h, 125 g ai/ha. Put shortly: as §2
The subject of experiment [8] is giant foxtail (Setaria faberii). Kind of experiment: Test A postemergence. The conditions noted are these: Setaria faberi, post-emergence, 240 h, 125 g ai/ha. The gist of the method:
as §2

The subject of a further experiment is Kochia (Kochia scoparia). Kind of experiment: Test A postemergence. As to conditions: Bassia scoparia, post-emergence, 240 h, 125 g ai/ha. Put shortly:
as §2

The subject of experiment [9] is blackgrass (Alopecurus myosuroides). Nature of the experiment: Test A postemergence. As to conditions: Alopecurus myosuroides, post-emergence, 240 h, 125 g ai/ha. Put shortly:
as §2

The test system of experiment [10] is barnyardgrass (Echinochloa crus-galli). Kind of experiment: Test A postemergence. The conditions noted are these: Echinochloa crus-galli, post-emergence, 240 h, 125 g ai/ha. Put shortly:
as §2

Experiment [11] deals with ragweed (common ragweed, Ambrosia elatior). Nature of the experiment: Test A postemergence. As to conditions: Ambrosia artemisiifolia, post-emergence, 240 h, 125 g ai/ha. The gist of the method:
as §2

The test system of experiment [12] is pigweed (Amaranthus retroflexus). Nature of the experiment: Test A postemergence. As to conditions: Amaranthus retroflexus, post-emergence, 240 h, 125 g ai/ha. The gist of the method:
as §2

The mark [13] stands for this setting: preemergence, read-out: Foxtail, Giant plant response rating.

Like-named read-outs stand apart in the source and are kept apart here.

As to `Cc1cccc(NC(=O)[C@H]2C(=O)N(C)C[C@@H]2c2ccc(C(F)(F)F)cc2)c1F` [Compound 939], the pest or weed control at 250 g/ha in experiment [1] was 40%; with rice (Oryra sativa) it was 0%; in experiment [2], 0%; in experiment [3], 0%. Also, the pest or weed control at 125 g/ha in experiment [4] (setting [13]) is 90%; in experiment [6] (Postemergence, visual injury after approximately 10 d, 0 to 100 scale where 0 is no effect and 100 is complete control, read-out: Plant response rating, Galium), 20%; in experiment [7] (Postemergence, visual injury after approximately 10 d, 0 to 100 scale where 0 is no effect and 100 is complete control, read-out: Plant response rating, Ryegrass, Italian), 0%; in experiment [8] (Postemergence, visual injury after approximately 10 d, 0 to 100 scale where 0 is no effect and 100 is complete control, read-out: Plant response rating, Foxtail, Giant) it was 90%; in the experiment on Kochia (Kochia scoparia) (Postemergence, visual injury after approximately 10 d, 0 to 100 scale where 0 is no effect and 100 is complete control, read-out: Plant response rating, Kochia) it was 0%; in [9] (Postemergence, visual injury after approximately 10 d, 0 to 100 scale where 0 is no effect and 100 is complete control, read-out: Plant response rating, Blackgrass), 0%. The pest or weed control at 125 g/ha is 80% in [10] (Postemergence, visual injury after approximately 10 d, 0 to 100 scale where 0 is no effect and 100 is complete control, read-out: Plant response rating, Barnyardgrass); 0% in experiment [11] (Postemergence, visual injury after approximately 10 d, 0 to 100 scale where 0 is no effect and 100 is complete control, read-out: Plant response rating, Ragweed); 0% in experiment [12] (Postemergence, visual injury after approximately 10 d, 0 to 100 scale where 0 is no effect and 100 is complete control, read-out: Plant response rating, Pigweed). The pest or weed control at 500 g/ha in experiment [4] (preemergence, visual injury rating about 10 d after treatment, 0 to 100 scale (0 no effect, 100 complete control), read-out: Foxtail, Giant plant response rating) came to 90%. In addition, the plant injury at 125 g/ha in experiment [5] (Postemergence, visual injury after approximately 10 d, 0 to 100 scale where 0 is no effect and 100 is complete control, read-out: Plant response rating, Wheat) came out at 20%. In the experiment with corn (Zea mays) (Postemergence, visual injury after approximately 10 d, 0 to 100 scale where 0 is no effect and 100 is complete control), this compound displayed a Corn plant response rating (crop injury, 0 = no effect, 100 = complete kill) at 125 g/ha of 0%.
As to `CSc1ccccc1NC(=O)[C@H]1C(=O)NC[C@@H]1c1cccc2c1OC(F)(F)O2` [Compound 865], the pest or weed control at 250 g/ha in experiment [1] worked out at 60%; with rice (Oryra sativa) it was 30%; in experiment [2], 0%; in [3] it was 30%. The pest or weed control at 125 g/ha is 0% in experiment [4] (setting [13]); 0% in experiment [6] (postemergence, visual injury rating after approximately 10 d, read-out: Galium plant response rating (0 to 100 scale, 0 no effect, 100 complete control)); 0% in experiment [7] (postemergence, visual injury rating after approximately 10 d, read-out: Ryegrass, Italian plant response rating (0 to 100 scale, 0 no effect, 100 complete control)); 0% in experiment [8] (postemergence, visual injury rating after approximately 10 d, read-out: Foxtail, Giant plant response rating (0 to 100 scale, 0 no effect, 100 complete control)); 0% in the experiment with Kochia (Kochia scoparia) (postemergence, visual injury rating after approximately 10 d, read-out: Kochia plant response rating (0 to 100 scale, 0 no effect, 100 complete control)); 0% in experiment [9] (postemergence, visual injury rating after approximately 10 d, read-out: Blackgrass plant response rating (0 to 100 scale, 0 no effect, 100 complete control)). For the same compound, the pest or weed control at 125 g/ha stood at 0% in [10] (postemergence, visual injury rating after approximately 10 d, read-out: Barnyardgrass plant response rating (0 to 100 scale, 0 no effect, 100 complete control)); 0% in experiment [11] (postemergence, visual injury rating after approximately 10 d, read-out: Ragweed plant response rating (0 to 100 scale, 0 no effect, 100 complete control)); 0% in experiment [12] (postemergence, visual injury rating after approximately 10 d, read-out: Pigweed plant response rating (0 to 100 scale, 0 no effect, 100 complete control)). In [4] (Preemergence, visual injury vs untreated controls after approximately 10 d, read-out: Foxtail, Giant plant response rating (0 to 100 scale where 0 is no effect and 100 is complete control)), the pest or weed control at 500 g/ha is 80%. In addition, the plant injury at 125 g/ha in experiment [5] (postemergence, visual injury rating after approximately 10 d, read-out: Wheat plant response rating (0 to 100 scale, 0 no effect, 100 complete control)) turned out to be 0%; with corn (Zea mays) (postemergence, visual injury rating after approximately 10 d, read-out: Corn plant response rating (0 to 100 scale, 0 no effect, 100 complete control)), 0%.

The values are drawn from patent US12077503B2, “Substituted cyclic amides and their use as herbicides” (FMC CORPORATION, priority 2015, dated 2024).
